Assay results from publication PMC9653733, “Characterization of a Potent, Selective, and Safe Inhibitor, Ac15(Az8)2, in Reversing Multidrug Resistance Mediated by Breast Cancer Resistance Protein (BCRP/ABCG2)” (International Journal of Molecular Sciences, 2022).
Values joined by “and” are separate entries in the source; they are usually repeats but may differ in a detail not shown here. Equal entries are not always repeated.

Experiments:
BCRP = target: T1, BCRP (Homo sapiens, UniProt Q9UNQ0, R482G); test: Intracellular Ac15(Az8)2 level in S1 and S1M180 (BCRP substrate test, UPLC-MS/MS); format: cell-based
T1 construct: endogenous in cells; host or cells: S1M180 (human colon carcinoma, mitoxantrone-selected)
T1 sequence (Q9UNQ0 1-655 R482G): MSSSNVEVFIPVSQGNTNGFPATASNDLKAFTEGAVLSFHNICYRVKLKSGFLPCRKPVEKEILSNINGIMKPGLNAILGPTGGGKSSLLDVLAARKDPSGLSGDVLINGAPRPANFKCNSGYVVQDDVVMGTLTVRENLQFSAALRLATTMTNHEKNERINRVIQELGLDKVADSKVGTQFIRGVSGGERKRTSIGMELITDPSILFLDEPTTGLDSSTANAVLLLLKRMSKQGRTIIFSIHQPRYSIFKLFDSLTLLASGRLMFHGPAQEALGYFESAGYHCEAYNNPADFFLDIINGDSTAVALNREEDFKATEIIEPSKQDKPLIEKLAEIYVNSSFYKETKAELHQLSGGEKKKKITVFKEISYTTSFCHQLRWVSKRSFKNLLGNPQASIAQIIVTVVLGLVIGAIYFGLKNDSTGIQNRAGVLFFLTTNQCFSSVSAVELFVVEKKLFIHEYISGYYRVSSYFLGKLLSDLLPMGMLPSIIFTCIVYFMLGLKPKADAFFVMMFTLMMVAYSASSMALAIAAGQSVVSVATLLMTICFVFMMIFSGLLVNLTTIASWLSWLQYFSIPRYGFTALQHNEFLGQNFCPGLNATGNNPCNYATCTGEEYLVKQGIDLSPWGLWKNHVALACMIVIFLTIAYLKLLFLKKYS
Protocol: Figure 2 Effect of Ac15(Az8)2 on intracellular accumulation of BCRP-substrates in S1 and S1M180 cells. Cells were pre-treated with 0.1% DMSO, 100 nM, or 1000 nM Ac15(Az8)2 and then incubated with BCRP substrates. (A) Topotecan accumulation. (B) DOX accumulation. The intracellular level of drug after treatment was normalized to that of S1 cells after incubating with 0.1% DMSO. Student unpaired two-tailed t-test was conducted as indicated (** p < 0.01, *** p < 0.001). (C) To measure DOX efflux, S1M180 cells were pre-incubated with medium containing 20 μM DOX for 1 h at 37 °C. Cells were then washed and further incubated with or without 1 µM of Ac15(Az8)2. At 0, 5, 10, 30, 60, 120, and 180 min, the cells were harvested to measure the intracellular DOX level. (D) To determine intracellular Ac15(Az8)2 concentration, 1 × 10^7 cells were incubated with 1 µM of Ac15(Az8)2 at 37 °C for 2 h. Cells were then washed with ice-cold PBS. To the cell pellet, acetonitrile was added to lyse the cells, and the supernatant was saved for Ac15(Az8)2 determination using UPLC–MS/MS.
BCRP is an efflux transporter with broad substrate selectivity. In order to study whether Ac15(Az8)2 is itself a substrate of BCRP, its intracellular level was measured after treating the S1 or S1M180 cells for 2 h.

[1] = Pharmacokinetics of Ac15(Az8)2 in mice; format: in vivo; details: female, Balb/c, mouse, ip, 45 mg/kg I.P., plasma
Protocol: (§1) Ac15(Az8)2 and topotecan in plasma were analyzed by UPLC–MS/MS. UPLC (Acquity Waters) and triple quadrupole mass analyzer (Quattro Ultima) with an electrospray ionization source in the positive mode were used to quantify Ac15(Az8)2 and topotecan. Acquity UPLC BEH C8 and C18 column (1.7 µm 2.1 × 50 mm) from Waters was used to separate Ac15(Az8)2 and topotecan, respectively. Mobile phases used for Ac15(Az8)2 analysis were water and acetonitrile. Ac15(Az8)2 and its internal standard Ac15(Az5)2 (Figure S2) were monitored at m/z 608 → m/z 149 and m/z 594 → […], respectively. Mobile phases used for topotecan analysis were water and methanol. Topotecan and its internal standard tetracycline were monitored at m/z 422 → m/z 377 and m/z 445 → m/z 410, respectively.
(§2) Female Balb/c mice at 4–6 weeks were used for the pharmacokinetic studies. Ac15(Az8)2 at 4 mg/mL was prepared in 10% NMP, 10% Cremophor-EL and 80% H2O. Topotecan was dissolved in H2O at 1 mg/mL, and 45 mg/kg Ac15(Az8)2 was administered through intraperitoneal (I.P.) injection. Blood was collected at 10, 30, 60, 70, 90, 120, 180, 240, 300, 480, 720 and 1440 min by cardiac puncture and stored in heparinized tubes for centrifugation at 16,000 g for 5 min. For topotecan pharmacokinetic study, 2 mg/kg topotecan was I.P. administered one hour after 45 mg/kg Ac15(Az8)2 or solvent injection. Blood was collected at 10, 30, 60, 120, 240 and 480 min post-topotecan administration. All animal studies were approved by the Animal Subjects Ethics Sub-committee of the Hong Kong Polytechnic University and performed in accordance with the Cap340 Animal License of the Department of Health in Hong Kong.

BCRP (MCF7-MX100 cells) = details: concentration reducing IC50 of anticancer drug by half; mean ± S.D.; ref [42]; read-out: EC50 needed for reversing BCRP-mediated topotecan resistance, MCF7-MX100; cited from earlier work
[2] = Pharmacokinetics of topotecan in mice with or without Ac15(Az8)2; format: in vivo; details: female, Balb/c, mouse, plasma, ip, topotecan 2 mg/kg I.P.; for AUC(0-inf) / Cmax / half-life: 2 mg/kg; for half-life: read-out: Half-life (E-phase) of topotecan (converted)
Protocol: as §1, §2

S1M180 cells = test: Cytotoxicity of anticancer drugs in S1M180 (0.1% DMSO); format: cell-based, human
Protocol: In total, 6500 cells of S1M180 or MCF7-MX100 were incubated with various doses of topotecan or DOX and modulators. The final volume in each well of 96-well plates was 200 µL. The plates were then incubated for 5 days at 37 °C. The CellTiter 96 AQueous Assay (Promega) was used to measure cell proliferation. According to the manufacturer’s instructions, MTS (2 mg/mL) and PMS (0.92 mg/mL) were mixed in a ratio of 20:1. An aliquot (10 μL) of the freshly prepared MTS/PMS mixture was added into each well, and the plate was incubated for 2 h at 37 °C. Optical absorbance at 490 nm was then recorded with microplate absorbance reader (Bio-Rad). IC50 values were calculated from the dose-response curves of MTS assays (Prism 4.0).

[3] = 45 mg/kg Ac15(Az8)2 I.P. one hour prior

Row | Structure (SMILES) | Intracellular level of Ac15(Az8)2 in S1M180 higher than in S1 (BCRP; 1 µM, 2 h, 37 °C) | Transport substrate of BCRP (BCRP; from intracellular levels in S1 vs S1M180) | AUC(0-inf) [1] | Cmax [1] | Tmax [1] | half-life ([1]; read-out: Half-life (E-phase) (converted)) | EC50 (BCRP (MCF7-MX100 cells)) | AUC(0-inf) [2, 3] | Cmax [2, 3] | half-life [2, 3] | AUC(0-inf) ([2]; Ac15(Az8)2 0 mg/kg (solvent)) | Cmax ([2]; Ac15(Az8)2 0 mg/kg (solvent)) | half-life ([2]; Ac15(Az8)2 0 mg/kg (solvent)) | Tmax [2, 3] | IC50 (S1M180 cells; Homo sapiens, S1-M1-80, S1M180 + 0.1% DMSO, mean ± S.D., n = 3, read-out: IC50 of topotecan) | RF (Relative Fold), topotecan (S1M180 cells; S1M180 + 0.1% DMSO (reference))
1 | COC(=O)c1cccc(COc2c(-c3ccc(OCCOCCn4cc(CN(Cc5ccccc5)Cc5cn(CCOCCOc6ccc(-c7oc8ccccc8c(=O)c7OCc7cccc(C(=O)OC)c7)cc6)nn5)nn4)cc3)oc3ccccc3c2=O)c1 [Ac15(Az8)2] | about 20% | not a transport substrate of BCRP | 83.5 µg·h/mL | 15.7 µg/mL | 3 h | 10.6 h | 3 nM and 3.3 nM | – | – | – | – | – | – | – | – | –
2 | CC[C@@]1(O)C(=O)OCc2c1cc1n(c2=O)Cc2cc3c(CN(C)C)c(O)ccc3nc2-1 [topotecan] | – | – | – | – | – | – | – | 8.7 µg·h/mL | 4.4 µg/mL | 1.6 h | 4.4 µg·h/mL | 2.9 µg/mL | 1.3 h | 1 h | 12400 nM | 1.0
